Values quoted from earlier work in US10829440B2, “Antibacterial compounds and methods of making and using same” (Brown University, priority 2015, dated 2020).

Tested on: LT
Details: cited from earlier work

For CC1=N[C@@H]2[C@@H](O)[C@H](O)[C@@H](CO)O[C@@H]2S1 [NAG-thiazoline], the “binding of LT” value is given as “weak binder”.
